# Assay results reported in patent publication US20260035382A1, “COMPOUNDS AS SUMO ACTIVATING ENZYME INHIBITORS” (WIGEN BIOMEDICINE TECHNOLOGY (SHANGHAI) CO., LTD., priority 2022, published 2026).
# Like-named read-outs stand apart in the source and are kept apart here.
# Key:
# [1] = In vivo pharmacokinetic experiment, intravenous administration; conditions: CD-1 female mice, 2 mpk; for Plasma AUClast: plasma (Table 5); for C0 / clearance / half-life / AUC(0-t) / Cmax / Vd: mouse, 2 mg/kg; for Vd: read-out: Vdss
# Experimental: CD-1 female mice aged 6 to 8 weeks were intravenously administered at a dose of 2 mg/kg. The mice were fasted for at least 12 h before the administration and given food after the administration, and they were given ad libitum access to water during the experiment. On the day of the experiment, animals in the intravenous group were administered the corresponding compound by single injection via the tail vein at an administration volume of 0.2 mL/animal. The sample collection time was 0.083 h, 0.167 h, 0.5 h, 1 h, 2 h, 4 h, 8 h, and 24 h. About 150 μL of whole blood was collected through the submaxillary venous plexus at each time point (30 μL of whole blood was diluted with ultrapure water at a ratio of 1:3, and 120 μL of whole blood was centrifuged to obtain plasma) and used for concentration determination by high-performance liquid chromatography-tandem mass spectrometry (LC-MS/MS). All animals were sacrificed after the PK samples were collected at the last time point. The plasma concentration was processed using a non-compartmental model of Phoenix WinNonlin™ version 8.3 (Certara) pharmacokinetic software, and the pharmacokinetic parameters were calculated using a linear-log trapezoidal method.
# SAE = SAE (Homo sapiens (Human), UniProt Q9UBT2); assay: In vitro inhibitory activity assay against SAE (SUMO-2/3 immunofluorescence in HCT116 cells); assay type: cell-based; conditions: 6 h incubation, read-out: SUMO IF IC50
# Procedure, shortened: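 HCT116 cells treated with compounds for 6 h at 37 °C, then fixed, permeabilized and immunostained for SUMO-2/3 with FITC secondary detection. Fluorescence compared with DMSO control to give inhibition rate and IC50.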
# [2] = whole blood, read-out: Whole blood AUClast
# [3] = whole blood, read-out: Whole blood Cmax
# Chain of SAE (Q9UBT2 whole entry): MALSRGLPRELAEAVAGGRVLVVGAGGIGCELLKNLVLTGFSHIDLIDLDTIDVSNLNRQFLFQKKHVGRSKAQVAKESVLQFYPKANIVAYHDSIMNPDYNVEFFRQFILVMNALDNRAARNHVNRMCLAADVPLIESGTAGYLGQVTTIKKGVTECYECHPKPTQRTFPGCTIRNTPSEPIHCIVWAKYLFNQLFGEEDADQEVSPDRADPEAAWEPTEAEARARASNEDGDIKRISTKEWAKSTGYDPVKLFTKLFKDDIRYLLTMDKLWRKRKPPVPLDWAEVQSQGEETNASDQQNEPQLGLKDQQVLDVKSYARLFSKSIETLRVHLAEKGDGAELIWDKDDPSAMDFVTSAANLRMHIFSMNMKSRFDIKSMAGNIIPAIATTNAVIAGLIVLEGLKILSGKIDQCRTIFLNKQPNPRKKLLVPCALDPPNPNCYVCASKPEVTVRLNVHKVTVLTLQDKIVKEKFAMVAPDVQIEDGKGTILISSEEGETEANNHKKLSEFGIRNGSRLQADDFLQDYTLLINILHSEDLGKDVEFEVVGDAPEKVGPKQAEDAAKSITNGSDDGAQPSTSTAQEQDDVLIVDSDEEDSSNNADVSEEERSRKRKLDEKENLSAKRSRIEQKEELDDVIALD
# Chain of SAE (Q9UBE0 whole entry partner): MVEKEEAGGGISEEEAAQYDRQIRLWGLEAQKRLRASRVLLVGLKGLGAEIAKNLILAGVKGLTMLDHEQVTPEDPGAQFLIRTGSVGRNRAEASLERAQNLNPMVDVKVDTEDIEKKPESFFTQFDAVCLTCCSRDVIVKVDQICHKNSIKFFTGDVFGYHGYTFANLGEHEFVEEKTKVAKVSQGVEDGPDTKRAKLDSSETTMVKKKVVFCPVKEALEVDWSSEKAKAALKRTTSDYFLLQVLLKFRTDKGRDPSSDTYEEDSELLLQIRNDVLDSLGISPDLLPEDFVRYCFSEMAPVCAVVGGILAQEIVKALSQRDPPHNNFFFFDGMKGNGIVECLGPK
smiles,measurement,setting,value
NS(=O)(=O)OC[C@H]1C[C@@H](Nc2ncncc2C(=O)c2cc3c(s2)CCC[C@]32NCCc3ccc(Cl)cc32)C[C@@H]1O [Compound 6],Whole blood AUClast/plasma AUClast ratio,[1],39.0
same,Whole blood Cmax/plasma Cmax ratio,[1],19.7
same,Plasma AUClast,[1],881 ng·h/mL
same,C0,[1]; plasma,1080 ng/mL
same,clearance,[1]; plasma,36.9 mL/min/kg
same,half-life,[1]; plasma,1.45 h
same,AUC(0-t),"[1]; plasma, read-out: AUClast",881 ng·h/mL
same,Cmax,"[1]; plasma, read-out: Cmax",798 ng/mL
same,Vd,[1]; plasma,3.5 L/kg
same,AUC(0-t),[1]; [2],34400 ng·h/mL
same,Cmax,[1]; [3],15800 ng/mL
same,IC50,SAE; numeric values,27.8 nM
NS(=O)(=O)OC[C@H]1C[C@@H](Nc2ncncc2C(=O)c2cc3c(s2)CCC[C@]32NCCc3ccc(F)cc32)C[C@@H]1O [Compound 9],Whole blood AUClast/plasma AUClast ratio,[1],32.7
same,Whole blood Cmax/plasma Cmax ratio,[1],23.9
same,Plasma AUClast,[1],580 ng·h/mL
same,C0,[1]; plasma,730 ng/mL
same,clearance,[1]; plasma,56.9 mL/min/kg
same,half-life,[1]; plasma,1.31 h
same,AUC(0-t),"[1]; plasma, read-out: AUClast",580 ng·h/mL
same,Cmax,"[1]; plasma, read-out: Cmax",597 ng/mL
same,Vd,[1]; plasma,3.91 L/kg
same,AUC(0-t),[1]; [2],19000 ng·h/mL
same,Cmax,[1]; [3],14300 ng/mL
same,IC50,SAE; numeric values,36 nM
NS(=O)(=O)OC[C@H]1C[C@@H](Nc2ncncc2C(=O)c2cc3c(s2)COC[C@]32NCCc3ccc(Cl)cc32)C[C@@H]1O [Compound 21],Whole blood AUClast/plasma AUClast ratio,[1],45.9
same,Whole blood Cmax/plasma Cmax ratio,[1],17.5
same,Plasma AUClast,[1],1479 ng·h/mL
same,C0,[1]; plasma,1610 ng/mL
same,clearance,[1]; plasma,21.1 mL/min/kg
same,half-life,[1]; plasma,2.17 h
same,AUC(0-t),"[1]; plasma, read-out: AUClast",1480 ng·h/mL
same,Cmax,"[1]; plasma, read-out: Cmax",1150 ng/mL
same,Vd,[1]; plasma,3.03 L/kg
same,AUC(0-t),[1]; [2],67900 ng·h/mL
same,Cmax,[1]; [3],20200 ng/mL
same,IC50,SAE; numeric values,87.5 nM
NS(=O)(=O)OC[C@H]1C[C@@H](Nc2ncncc2C(=O)c2cc3c(s2)CC[C@]32NCCc3ccc(Cl)cc32)C[C@@H]1O [Compound 48],C0,[1]; plasma,839 ng/mL
same,clearance,[1]; plasma,44 mL/min/kg
same,half-life,[1]; plasma,1.32 h
same,AUC(0-t),"[1]; plasma, read-out: AUClast",749 ng·h/mL
same,Cmax,"[1]; plasma, read-out: Cmax",719 ng/mL
same,Vd,[1]; plasma,3.43 L/kg
same,IC50,SAE; numeric values,41 nM
NS(=O)(=O)OC[C@H]1C[C@@H](Nc2ncncc2C(=O)c2cc3c(s2)CCC32OCCc3ccccc32)C[C@@H]1O (some centres unmarked) [Compound 280],IC50,SAE; class symbols,> 200 nM
NS(=O)(=O)OC[C@H]1C[C@@H](Nc2ncncc2C(=O)c2cc3c(s2)CC[C@@]32OCCc3ccccc32)C[C@@H]1O [Compound 281],IC50,SAE; class symbols,> 200 nM
NS(=O)(=O)OC[C@H]1C[C@@H](Nc2ncncc2C(=O)c2cc3c(s2)CC[C@]32OCCc3ccccc32)C[C@@H]1O [Compound 282],IC50,SAE; class symbols,50 to 200 nM
NS(=O)(=O)OC[C@H]1C[C@@H](Nc2ncncc2C(=O)c2cc3c(s2)CCC32OCCc3ccc(F)cc32)C[C@@H]1O (some centres unmarked) [Compound 283],IC50,SAE; class symbols,50 to 200 nM
NS(=O)(=O)OC[C@H]1C[C@@H](Nc2ncncc2C(=O)c2cc3c(s2)CC[C@@]32OCCc3ccc(F)cc32)C[C@@H]1O [Compound 284],IC50,SAE; class symbols,> 200 nM
NS(=O)(=O)OC[C@H]1C[C@@H](Nc2ncncc2C(=O)c2cc3c(s2)CC[C@]32OCCc3ccc(F)cc32)C[C@@H]1O [Compound 285],IC50,SAE; class symbols,50 to 200 nM
N#Cc1ccc2c(c1)C1(CCc3sc(C(=O)c4cncnc4N[C@@H]4C[C@H](COS(N)(=O)=O)[C@@H](O)C4)cc31)OCC2 (some centres unmarked) [Compound 286],IC50,SAE; class symbols,50 to 200 nM
N#Cc1ccc2c(c1)[C@]1(CCc3sc(C(=O)c4cncnc4N[C@@H]4C[C@H](COS(N)(=O)=O)[C@@H](O)C4)cc31)OCC2 [Compound 287],IC50,SAE; class symbols,> 200 nM
N#Cc1ccc2c(c1)[C@@]1(CCc3sc(C(=O)c4cncnc4N[C@@H]4C[C@H](COS(N)(=O)=O)[C@@H](O)C4)cc31)OCC2 [Compound 288],IC50,SAE; class symbols,≤ 50 nM
NS(=O)(=O)OC[C@H]1C[C@@H](Nc2ncncc2C(=O)c2cc3c(s2)C=CC32OCCc3ccccc32)C[C@@H]1O (some centres unmarked) [Compound 289],IC50,SAE; class symbols,50 to 200 nM
NS(=O)(=O)OC[C@H]1C[C@@H](Nc2ncncc2C(=O)c2cc3c(s2)C=C[C@@]32OCCc3ccccc32)C[C@@H]1O [Compound 290],IC50,SAE; class symbols,> 200 nM
NS(=O)(=O)OC[C@H]1C[C@@H](Nc2ncncc2C(=O)c2cc3c(s2)C=C[C@]32OCCc3ccccc32)C[C@@H]1O [Compound 291],IC50,SAE; class symbols,50 to 200 nM
NS(=O)(=O)OC[C@H]1C[C@@H](Nc2ncncc2C(=O)c2cc3c(s2)C=CC32OCCc3ccc(F)cc32)C[C@@H]1O (some centres unmarked) [Compound 292],IC50,SAE; class symbols,50 to 200 nM
NS(=O)(=O)OC[C@H]1C[C@@H](Nc2ncncc2C(=O)c2cc3c(s2)C=C[C@@]32OCCc3ccc(F)cc32)C[C@@H]1O [Compound 293],IC50,SAE; class symbols,> 200 nM
NS(=O)(=O)OC[C@H]1C[C@@H](Nc2ncncc2C(=O)c2cc3c(s2)C=C[C@]32OCCc3ccc(F)cc32)C[C@@H]1O [Compound 294],IC50,SAE; class symbols,≤ 50 nM
NS(=O)(=O)OC[C@H]1C[C@@H](Nc2ncncc2C(=O)c2cc3c(s2)C=CC32OCCc3ccc(Cl)cc32)C[C@@H]1O (some centres unmarked) [Compound 295],IC50,SAE; class symbols,≤ 50 nM
NS(=O)(=O)OC[C@H]1C[C@@H](Nc2ncncc2C(=O)c2cc3c(s2)C=C[C@@]32OCCc3ccc(Cl)cc32)C[C@@H]1O [Compound 296],IC50,SAE; class symbols,> 200 nM
NS(=O)(=O)OC[C@H]1C[C@@H](Nc2ncncc2C(=O)c2cc3c(s2)C=C[C@]32OCCc3ccc(Cl)cc32)C[C@@H]1O [Compound 297],IC50,SAE; class symbols,≤ 50 nM
N#Cc1ccc2c(c1)C1(C=Cc3sc(C(=O)c4cncnc4N[C@@H]4C[C@H](COS(N)(=O)=O)[C@@H](O)C4)cc31)OCC2 (some centres unmarked) [Compound 298],IC50,SAE; class symbols,50 to 200 nM
N#Cc1ccc2c(c1)[C@]1(C=Cc3sc(C(=O)c4cncnc4N[C@@H]4C[C@H](COS(N)(=O)=O)[C@@H](O)C4)cc31)OCC2 [Compound 299],IC50,SAE; class symbols,> 200 nM
N#Cc1ccc2c(c1)[C@@]1(C=Cc3sc(C(=O)c4cncnc4N[C@@H]4C[C@H](COS(N)(=O)=O)[C@@H](O)C4)cc31)OCC2 [Compound 300],IC50,SAE; class symbols,≤ 50 nM
"Cc1sc(C(=O)c2cncnc2N[C@@H]2C[C@H](COS(N)(=O)=O)[C@@H](O)C2)cc1[C@@H]1NCCc2ccc(Cl)cc21 [TAK-981, reference compound]",IC50,SAE; numeric values,53.2 nM
